# Tests used:
# [1] = tested on: gram-negative and gram-positive organisms; test: in vivo activity against infections (in words); set-up: species or system mice
# Protocol: Methods: The method employed in this characterization is as follows: Female white Swiss mice, average weight 20-23 grams, were infected intraperitoneally with 3-20 times the number of organisms calculated to be lethal for 50% of the infected control animals (3-20 LD50 doses). At the time of infection and again 6 hours later, therapy was given by the designated route. Controls of the virulence of the culture and the toxicity of the antibiotic for uninfected mice were included in the tests. Seven days after infection the test was considered complete and the amount of the antibiotic (I) that would be required to protect 50% of the infected and treated animals was calculated by the method of Knudsen and Curtis: J. Amer. Stat. Assoc. Vol. 42: page 282 (1947).
# The method employed in these studies is the same as described above with regard to the in vivo characterization of 810A.
# [2] = tested on: cephalosporinases; test: resistance to cephalosporinases / enzymatic degradation; assay type: biochemical
# [3] = tested on: Proteus vulgaris (MB-838); test: disc-plate assay using Proteus vulgaris; assay type: cell-based; details: read-out: concentration giving a 25 mm. zone
smiles,measurement,setting,value
"COC(=Cc1ccc(OS(=O)(=O)O)cc1)C(=O)OCC1=C(C(=O)O)N2C(=O)[C@](NC(=O)CCC[C@@H](N)C(=O)O)(OC)[C@H]2SC1 [Ic, 7β-(D-5-amino-5-carboxyvaleramido)-3-(α-methoxy-p-sulfooxycinnamoyloxymethyl)-7-methoxy-3-cephem-4-carboxylic acid]",effectiveness against infections,[1]; administered intraperitoneally,effective against a variety of gram-negative and gram-positive infections
same,oral protection against infections,[1]; given orally,protects against infections due to Proteus vulgaris
same,resistance to enzymatic degradation compared with cephalosporin C,[2],more resistant to enzymatic degradation than cephalosporin C
same,IC (25 mm zone),[3],88 µg/mL

# — US4036696A, “Preparation of antibiotics by fermentation” (priority 1976, dated 1977)
